Reference: ChEMBL document CHEMBL1156056, “Phosphoinositide-3-kinase (PI3K) inhibitors: identification of new scaffolds using virtual screening” (Bioorg Med Chem Lett, 2009)

What was measured:
[1] = Inhibition of bovine recombinant PI3Kgamma expressed in baculovirus-infected Sf21 cells at 100 uM; conditions: Bos taurus
[2] = target: T1, Phosphatidylinositol 4,5-bisphosphate 3-kinase catalytic subunit delta isoform (Homo sapiens) (UniProt O00329); assay: Inhibition of recombinant PI3Kdelta expressed in baculovirus-infected Sf21 cells at 100 uM
T1 sequence (whole entry): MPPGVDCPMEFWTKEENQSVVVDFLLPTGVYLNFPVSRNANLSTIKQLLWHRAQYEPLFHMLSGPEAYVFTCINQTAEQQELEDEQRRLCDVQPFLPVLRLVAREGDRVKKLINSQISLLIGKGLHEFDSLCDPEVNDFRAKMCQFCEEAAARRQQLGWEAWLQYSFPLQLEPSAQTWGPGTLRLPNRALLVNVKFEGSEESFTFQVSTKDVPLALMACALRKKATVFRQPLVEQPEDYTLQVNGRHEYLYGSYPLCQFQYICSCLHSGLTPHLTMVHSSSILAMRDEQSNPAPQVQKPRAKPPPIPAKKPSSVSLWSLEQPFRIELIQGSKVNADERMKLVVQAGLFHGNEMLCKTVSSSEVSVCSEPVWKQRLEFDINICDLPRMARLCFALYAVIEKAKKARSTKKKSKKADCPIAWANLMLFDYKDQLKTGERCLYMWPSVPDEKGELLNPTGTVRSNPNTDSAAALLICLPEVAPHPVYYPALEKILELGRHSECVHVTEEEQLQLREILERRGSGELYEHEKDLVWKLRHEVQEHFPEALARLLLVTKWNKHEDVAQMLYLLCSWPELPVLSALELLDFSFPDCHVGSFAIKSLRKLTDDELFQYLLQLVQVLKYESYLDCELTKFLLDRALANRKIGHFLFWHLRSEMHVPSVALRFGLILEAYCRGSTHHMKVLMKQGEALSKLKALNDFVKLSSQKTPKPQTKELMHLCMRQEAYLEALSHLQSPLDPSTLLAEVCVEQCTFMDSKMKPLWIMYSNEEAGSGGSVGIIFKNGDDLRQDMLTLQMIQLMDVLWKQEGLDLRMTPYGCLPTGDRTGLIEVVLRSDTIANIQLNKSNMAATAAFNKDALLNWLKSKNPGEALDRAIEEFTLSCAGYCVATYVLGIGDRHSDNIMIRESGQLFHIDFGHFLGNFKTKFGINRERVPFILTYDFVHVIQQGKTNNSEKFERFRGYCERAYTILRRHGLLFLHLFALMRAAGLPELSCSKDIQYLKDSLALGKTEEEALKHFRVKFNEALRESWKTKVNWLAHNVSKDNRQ

[3] = target: Phosphatidylinositol 4,5-bisphosphate 3-kinase catalytic subunit alpha isoform (Mus musculus) (UniProt P42337); assay: Inhibition of mouse recombinant PI3Kalpha expressed in baculovirus-infected Sf21 cells at 100 uM
Chain of Phosphatidylinositol 4,5-bisphosphate 3-kinase catalytic subunit alpha isoform (Mus musculus) (P42337 whole entry, canonical isoform): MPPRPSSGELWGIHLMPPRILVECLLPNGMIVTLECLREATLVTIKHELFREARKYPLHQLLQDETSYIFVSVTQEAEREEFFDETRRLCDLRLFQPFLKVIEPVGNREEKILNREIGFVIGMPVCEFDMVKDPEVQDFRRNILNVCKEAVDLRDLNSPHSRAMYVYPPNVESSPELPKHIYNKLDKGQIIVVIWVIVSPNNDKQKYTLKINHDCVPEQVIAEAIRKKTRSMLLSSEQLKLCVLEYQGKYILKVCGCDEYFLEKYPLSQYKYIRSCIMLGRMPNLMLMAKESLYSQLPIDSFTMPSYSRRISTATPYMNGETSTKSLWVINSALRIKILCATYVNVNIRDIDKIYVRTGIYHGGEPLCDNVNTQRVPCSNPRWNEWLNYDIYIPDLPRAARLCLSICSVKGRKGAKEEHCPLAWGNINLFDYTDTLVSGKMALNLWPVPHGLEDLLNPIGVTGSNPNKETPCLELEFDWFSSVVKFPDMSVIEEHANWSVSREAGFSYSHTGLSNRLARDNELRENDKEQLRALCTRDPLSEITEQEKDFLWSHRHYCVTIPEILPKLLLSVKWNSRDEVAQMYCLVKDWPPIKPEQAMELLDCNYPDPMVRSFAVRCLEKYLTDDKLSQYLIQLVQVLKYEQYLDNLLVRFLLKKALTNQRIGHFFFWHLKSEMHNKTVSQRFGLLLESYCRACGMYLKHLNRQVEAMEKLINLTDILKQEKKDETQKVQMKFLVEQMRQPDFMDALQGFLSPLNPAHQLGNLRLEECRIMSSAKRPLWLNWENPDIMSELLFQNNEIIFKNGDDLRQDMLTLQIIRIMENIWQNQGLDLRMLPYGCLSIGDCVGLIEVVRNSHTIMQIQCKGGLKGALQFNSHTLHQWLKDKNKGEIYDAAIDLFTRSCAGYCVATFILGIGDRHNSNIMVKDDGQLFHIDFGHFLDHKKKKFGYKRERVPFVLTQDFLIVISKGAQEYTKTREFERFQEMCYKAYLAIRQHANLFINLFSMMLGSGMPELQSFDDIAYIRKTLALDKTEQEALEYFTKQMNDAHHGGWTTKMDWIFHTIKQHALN

[4] = target: T2, Phosphatidylinositol 4,5-bisphosphate 3-kinase catalytic subunit beta isoform (Homo sapiens, UniProt P42338); assay: Inhibition of human recombinant PI3Kbeta expressed in baculovirus-infected Sf21 cells at 100 uM
Target sequence in this assay (P42338 whole entry, looked up, canonical isoform): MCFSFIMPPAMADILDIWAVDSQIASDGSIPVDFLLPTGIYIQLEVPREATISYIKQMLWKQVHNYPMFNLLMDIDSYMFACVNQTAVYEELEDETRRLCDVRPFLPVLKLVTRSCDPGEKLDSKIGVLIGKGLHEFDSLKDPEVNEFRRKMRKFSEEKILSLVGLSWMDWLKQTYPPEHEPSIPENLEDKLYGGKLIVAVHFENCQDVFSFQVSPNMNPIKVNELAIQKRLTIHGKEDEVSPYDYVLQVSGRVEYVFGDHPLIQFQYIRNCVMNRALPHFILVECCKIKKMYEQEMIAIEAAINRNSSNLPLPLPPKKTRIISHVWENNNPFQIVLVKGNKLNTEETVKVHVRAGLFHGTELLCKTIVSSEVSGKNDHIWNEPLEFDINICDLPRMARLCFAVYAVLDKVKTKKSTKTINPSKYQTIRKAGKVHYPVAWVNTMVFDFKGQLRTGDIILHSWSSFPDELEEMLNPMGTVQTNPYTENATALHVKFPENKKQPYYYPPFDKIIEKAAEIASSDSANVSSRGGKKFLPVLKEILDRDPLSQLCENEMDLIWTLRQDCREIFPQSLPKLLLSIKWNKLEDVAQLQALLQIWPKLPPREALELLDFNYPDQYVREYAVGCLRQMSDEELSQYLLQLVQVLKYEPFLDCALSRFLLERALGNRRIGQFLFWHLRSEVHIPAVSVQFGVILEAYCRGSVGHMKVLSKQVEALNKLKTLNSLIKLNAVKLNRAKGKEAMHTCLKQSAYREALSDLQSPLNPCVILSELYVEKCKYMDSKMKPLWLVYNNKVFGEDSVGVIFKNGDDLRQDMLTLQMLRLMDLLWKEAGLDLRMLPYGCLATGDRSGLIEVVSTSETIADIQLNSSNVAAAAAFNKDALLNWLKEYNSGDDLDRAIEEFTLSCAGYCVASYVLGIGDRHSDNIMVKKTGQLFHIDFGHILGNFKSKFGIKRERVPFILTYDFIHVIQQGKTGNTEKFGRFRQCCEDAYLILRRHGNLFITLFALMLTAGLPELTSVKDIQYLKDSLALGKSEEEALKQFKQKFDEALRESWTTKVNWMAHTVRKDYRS

[5] = Inhibition of bovine recombinant PI3Kgamma expressed in baculovirus-infected Sf21 cells; set-up: species or system Bos taurus
[6] = target: T2, Phosphatidylinositol 4,5-bisphosphate 3-kinase catalytic subunit beta isoform; assay: Inhibition of human recombinant PI3Kbeta expressed in baculovirus-infected Sf21 cells
Target sequence in this assay (P42338 whole entry, canonical isoform): as the sequence (P42338 whole entry, looked up, canonical isoform) above

[7] = target: Phosphatidylinositol 4,5-bisphosphate 3-kinase catalytic subunit alpha isoform (Mus musculus, UniProt P42337); assay: Inhibition of mouse recombinant PI3Kalpha expressed in baculovirus-infected Sf21 cells
Chain of Phosphatidylinositol 4,5-bisphosphate 3-kinase catalytic subunit alpha isoform (P42337 whole entry, canonical isoform): as the sequence (P42337 whole entry, canonical isoform) above

[8] = target: T3, Phosphatidylinositol 4,5-bisphosphate 3-kinase catalytic subunit delta isoform (Homo sapiens, UniProt O00329); assay: Inhibition of recombinant PI3Kdelta expressed in baculovirus-infected Sf21 cells
T3 sequence (O00329 whole entry): T1 sequence (whole entry)

[9] = Selectivity for PI3Kgamma over PI3Kalpha
[10] = Selectivity for PI3Kgamma over PI3Kdelta
[11] = Selectivity for PI3Kgamma over PI3Kbeta

inhibition [2] [%] | inhibition [3] [%] | inhibition [4] [%] | IC50 [5] [µM] | IC50 [6] [µM] | IC50 [7] [µM] | IC50 [8] [µM] | Ratio [9] | Ratio [10] | Ratio [11] | SMILES | inhibition [1] [%]
> 40 | > 40 | > 40 | 12 | 14 | 3 | 4 |  |  |  | O=c1oc2cc(O)ccc2cc1-c1nc2ccccc2s1 | > 40
> 40 | > 40 | > 40 |  |  |  |  |  |  |  | O=c1cc(N2CCOCC2)oc2c(-c3ccccc3)cccc12 [LY-294002] | > 40
> 40 | > 40 | > 40 | 6 | 12 | 19 | > 100 |  |  |  | O=C(CCn1c(=O)oc2cc(Cl)ccc21)Nc1ccccc1 | > 40
> 40 | > 40 | > 40 | > 100 | > 100 | 78 |  |  |  |  | COc1nc(-c2ccccc2)ccc1-c1noc(-c2ccncc2)n1 | > 40
> 40 | > 40 | > 40 | 75 |  | > 100 |  |  |  |  | COc1ccccc1-c1nc(-c2cc3cc(C)ccc3[nH]c2=O)no1 | > 40

Second part, the molecule before the results:

SMILES | inhibition [2] [%] | inhibition [3] [%] | inhibition [4] [%] | IC50 [5] [µM] | IC50 [6] [µM] | IC50 [7] [µM] | IC50 [8] [µM] | Ratio [9] | Ratio [10] | Ratio [11] | inhibition [1] [%]
Cc1ccc2cc3c(OC(=O)COc4ccccc4)nn(C)c3nc2c1 | > 40 | > 40 | > 40 | 16 | > 100 | 38 | 47 |  |  |  | > 40
COc1cccc(-c2nc(-c3cc4cc(OC)ccc4[nH]c3=O)no2)c1 | > 40 | > 40 | > 40 | 4 | 3 | 0.9 | 0.9 |  |  |  | > 40
O=C1NC(=O)/C(=C/c2ccc3nccnc3c2)S1 |  |  |  |  |  |  |  | 7.5 | > 30 | > 30 | 
COC(=O)c1ccc(CSc2ncnc3sc(C)c(C)c23)o1 | > 40 | > 40 | > 40 | 71 | > 100 | > 100 | > 100 |  |  |  | > 40
